Test results as given in the NIST ThermoML archive (doi:10.1016/j.jct.2007.04.005).
Numbers after ± are expanded uncertainties.

Experiment: xn = mol fraction of the nth substance listed
Conditions: Liquid, x1 = 1

## C1CCCCC1 [cyclohexane] + CCCCCCCCC
298.15 K, 100 kPa
  mass density: 773.8 ± 0.5 kg/m3
298.15 K, 101 kPa
  mass density: 773.8 ± 0.49 kg/m3
298.15 K, 2130 kPa
  mass density: 775.5 ± 0.6 kg/m3
298.15 K, 4150 kPa
  mass density: 777.2 ± 0.6 kg/m3
298.15 K, 6180 kPa
  mass density: 778.8 ± 0.7 kg/m3
298.15 K, 8210 kPa
  mass density: 780.4 ± 0.8 kg/m3
298.15 K, 10230 kPa
  mass density: 782 ± 0.8 kg/m3
298.15 K, 11250 kPa
  mass density: 782.8 ± 0.9 kg/m3
298.15 K, 12260 kPa
  mass density: 783.5 ± 0.9 kg/m3
298.15 K, 14290 kPa
  mass density: 785 ± 1 kg/m3
298.15 K, 16310 kPa
  mass density: 786.5 ± 1 kg/m3
298.15 K, 18340 kPa
  mass density: 788 ± 1.1 kg/m3
298.15 K, 20370 kPa
  mass density: 789.4 ± 1.1 kg/m3
298.15 K, 22390 kPa
  mass density: 790.9 ± 1.2 kg/m3
298.15 K, 24420 kPa
  mass density: 792.2 ± 1.3 kg/m3
298.15 K, 26450 kPa
  mass density: 793.6 ± 1.3 kg/m3
298.15 K, 28470 kPa
  mass density: 794.9 ± 1.4 kg/m3
298.15 K, 29490 kPa
  mass density: 795.6 ± 1.4 kg/m3
298.15 K, 30500 kPa
  mass density: 796.1 ± 1.4 kg/m3
298.15 K, 32530 kPa
  mass density: 797.5 ± 1.5 kg/m3
298.15 K, 34550 kPa
  mass density: 798.7 ± 1.5 kg/m3
298.15 K, 36580 kPa
  mass density: 800 ± 1.6 kg/m3
298.15 K, 38600 kPa
  mass density: 801.2 ± 1.6 kg/m3
298.15 K, 39620 kPa
  mass density: 801.7 ± 1.7 kg/m3
308.15 K, 100 kPa
  mass density: 764.4 ± 0.5 kg/m3
308.15 K, 101 kPa
  mass density: 764.38 ± 0.5 kg/m3
308.15 K, 2130 kPa
  mass density: 766.2 ± 0.6 kg/m3
308.15 K, 4150 kPa
  mass density: 767.9 ± 0.7 kg/m3
308.15 K, 6180 kPa
  mass density: 769.7 ± 0.7 kg/m3
308.15 K, 8210 kPa
  mass density: 771.4 ± 0.8 kg/m3
308.15 K, 10230 kPa
  mass density: 773.1 ± 0.9 kg/m3
308.15 K, 11250 kPa
  mass density: 773.9 ± 0.9 kg/m3
308.15 K, 12260 kPa
  mass density: 774.7 ± 0.9 kg/m3
308.15 K, 14290 kPa
  mass density: 776.4 ± 1 kg/m3
308.15 K, 16310 kPa
  mass density: 777.9 ± 1.1 kg/m3
308.15 K, 18340 kPa
  mass density: 779.5 ± 1.1 kg/m3
308.15 K, 20370 kPa
  mass density: 781 ± 1.2 kg/m3
308.15 K, 22390 kPa
  mass density: 782.5 ± 1.2 kg/m3
308.15 K, 24420 kPa
  mass density: 784 ± 1.3 kg/m3
308.15 K, 26450 kPa
  mass density: 785.5 ± 1.4 kg/m3
308.15 K, 28470 kPa
  mass density: 786.9 ± 1.4 kg/m3
308.15 K, 29490 kPa
  mass density: 787.6 ± 1.4 kg/m3
308.15 K, 30500 kPa
  mass density: 788.3 ± 1.5 kg/m3
308.15 K, 32530 kPa
  mass density: 789.7 ± 1.5 kg/m3
308.15 K, 34550 kPa
  mass density: 791 ± 1.6 kg/m3
308.15 K, 36580 kPa
  mass density: 792.4 ± 1.6 kg/m3
308.15 K, 38600 kPa
  mass density: 793.7 ± 1.7 kg/m3
308.15 K, 39620 kPa
  mass density: 794.3 ± 1.7 kg/m3
318.15 K, 100 kPa
  mass density: 754.8 ± 0.6 kg/m3
318.15 K, 101 kPa
  mass density: 754.99 ± 0.52 kg/m3
318.15 K, 2130 kPa
  mass density: 756.7 ± 0.6 kg/m3
318.15 K, 4150 kPa
  mass density: 758.7 ± 0.7 kg/m3
318.15 K, 6180 kPa
  mass density: 760.6 ± 0.8 kg/m3
318.15 K, 8210 kPa
  mass density: 762.4 ± 0.8 kg/m3
318.15 K, 10230 kPa
  mass density: 764.2 ± 0.9 kg/m3
318.15 K, 11250 kPa
  mass density: 765.1 ± 0.9 kg/m3
318.15 K, 12260 kPa
  mass density: 766 ± 1 kg/m3
318.15 K, 14290 kPa
  mass density: 767.7 ± 1 kg/m3
318.15 K, 16310 kPa
  mass density: 769.4 ± 1.1 kg/m3
318.15 K, 18340 kPa
  mass density: 771.1 ± 1.2 kg/m3
318.15 K, 20370 kPa
  mass density: 772.7 ± 1.2 kg/m3
318.15 K, 22390 kPa
  mass density: 774.3 ± 1.3 kg/m3
318.15 K, 24420 kPa
  mass density: 775.8 ± 1.3 kg/m3
318.15 K, 26450 kPa
  mass density: 777.3 ± 1.4 kg/m3
318.15 K, 28470 kPa
  mass density: 778.8 ± 1.5 kg/m3
318.15 K, 29490 kPa
  mass density: 779.6 ± 1.5 kg/m3
318.15 K, 30500 kPa
  mass density: 780.3 ± 1.5 kg/m3
318.15 K, 32530 kPa
  mass density: 781.7 ± 1.6 kg/m3
318.15 K, 34550 kPa
  mass density: 783.2 ± 1.6 kg/m3
318.15 K, 36580 kPa
  mass density: 784.6 ± 1.7 kg/m3
318.15 K, 38600 kPa
  mass density: 786 ± 1.8 kg/m3
318.15 K, 39620 kPa
  mass density: 786.7 ± 1.8 kg/m3
328.15 K, 100 kPa
  mass density: 745.4 ± 0.5 kg/m3
328.15 K, 101 kPa
  mass density: 745.55 ± 0.53 kg/m3
328.15 K, 2130 kPa
  mass density: 746.6 ± 0.6 kg/m3
328.15 K, 4150 kPa
  mass density: 749.6 ± 0.7 kg/m3
328.15 K, 6180 kPa
  mass density: 751.6 ± 0.8 kg/m3
328.15 K, 8210 kPa
  mass density: 753.6 ± 0.9 kg/m3
328.15 K, 10230 kPa
  mass density: 755.5 ± 0.9 kg/m3
328.15 K, 11250 kPa
  mass density: 756.4 ± 1 kg/m3
328.15 K, 12260 kPa
  mass density: 757.4 ± 1 kg/m3
328.15 K, 14290 kPa
  mass density: 759.2 ± 1.1 kg/m3
328.15 K, 16310 kPa
  mass density: 761 ± 1.1 kg/m3
328.15 K, 18340 kPa
  mass density: 762.8 ± 1.2 kg/m3
328.15 K, 20370 kPa
  mass density: 764.5 ± 1.3 kg/m3
328.15 K, 22390 kPa
  mass density: 766.2 ± 1.3 kg/m3
328.15 K, 24420 kPa
  mass density: 767.9 ± 1.4 kg/m3
328.15 K, 26450 kPa
  mass density: 769.6 ± 1.4 kg/m3
328.15 K, 28470 kPa
  mass density: 771.2 ± 1.5 kg/m3
328.15 K, 29490 kPa
  mass density: 772 ± 1.5 kg/m3
328.15 K, 30500 kPa
  mass density: 772.7 ± 1.6 kg/m3
328.15 K, 32530 kPa
  mass density: 774.3 ± 1.6 kg/m3
328.15 K, 34550 kPa
  mass density: 775.8 ± 1.7 kg/m3
328.15 K, 36580 kPa
  mass density: 777.3 ± 1.7 kg/m3
328.15 K, 38600 kPa
  mass density: 778.8 ± 1.8 kg/m3
328.15 K, 39620 kPa
  mass density: 779.4 ± 1.8 kg/m3
